Consider 15 compounds from article PMC6754133 (PLoS ONE, 2019).

For assay [1], the target named is T1, SMO (Mus musculus, UniProt P56726).
T1 construct: host or cells: NIH 3T3 Gli-RE
The conditions noted are these: literature value, cited from earlier work; for pIC50: read-out: Gli-RE-luciferase assay IC50.

The test system of a further assay is Hh/SMO pathway. In words: Gli-Luciferase functional assay, NIH 3T3 Gli-RE cells stimulated with ShhN. The class given is cell-based. The conditions noted are these: for Span of concentration response curve: data as percent of the maximum luminescence in the absence of antagonists, Fig 4; for Inhibition of ShhN-induced Hh signaling (in words): NIH 3T3 Gli-RE cells, ShhN stimulated. On the procedure: After 24 hours, when the cells reached confluency, the culture medium was replaced with 80 μL per well of assay medium [Optimem ± 10 mM HEPES ± 1 mM Sodium Pyruvate + 1× MEM NEAA]. […] Then the cells were stimulated by addition of either ShhN-conditioned media or control media (DMEM±10%BCS) at a final concentration of 10%. Following incubation of the plate for at least 28 hours at 37°C, the cells were simultaneously lysed and supplemented with a luciferase substrate by addition of equal volume of Steady-Glo reagent (Promega, E2520) directly to the assay media. Plates were mixed by pipetting, centrifuged to eliminate foam, incubated for 10 minutes, and analyzed using Perkin Elmer Viktor X luminescence plate reader. The results were analyzed using a non-linear regression (Prism 6, GraphPad Software, La Jolla, CA). Data were normalized to the maximal response observed for ShhN-stimulated cells in the same experiment. A sigmoidal-dose response curve was used as a model for data analysis and IC50 value calculation.

The test system of assay [2] is DAOY cells. In words: cells. The conditions noted are these: Homo sapiens, 72 h, read-out: Cell viability assay IC50.
Assay [3] concerns DAOY cells. In words: Neurosphere formation assay. Format: cell-based, human. The conditions noted are these: DAOY, 10 μM, at least 7 days, 1–2 cells per well.
Experimental: (§2) The final concentration of test compounds in the wells was 10 μM. Cells were incubated at 37 °C for at least seven days. After incubation percent of wells positive with neural stem cell-derived sphere colonies were calculated for each test condition and compared.
In a further assay the test system is MB-PDX and DAOY cells. As to the kind of experiment: alamarBlue cell viability assay, adherent versus NS conditions. Format: cell-based, human. The procedure: The results were analyzed using a non-linear regression (Prism 6, GraphPad Software, La Jolla, CA).
(Resazurin is reduced to fluorescent resorufin, in cell work by metabolically active cells.)

Assay [4] relates to MB-PDX cells. In words: Neurosphere formation assay. Format: cell-based, human. The conditions noted are these: MB-PDX, 10 μM, at least 7 days, 1–2 cells per well.
Experimental: as §2
The target in another assay is T2, mSMO (Mus musculus, UniProt P56726).
T2 construct: host or cells: HEK293T
T2 sequence (P56726 33-793): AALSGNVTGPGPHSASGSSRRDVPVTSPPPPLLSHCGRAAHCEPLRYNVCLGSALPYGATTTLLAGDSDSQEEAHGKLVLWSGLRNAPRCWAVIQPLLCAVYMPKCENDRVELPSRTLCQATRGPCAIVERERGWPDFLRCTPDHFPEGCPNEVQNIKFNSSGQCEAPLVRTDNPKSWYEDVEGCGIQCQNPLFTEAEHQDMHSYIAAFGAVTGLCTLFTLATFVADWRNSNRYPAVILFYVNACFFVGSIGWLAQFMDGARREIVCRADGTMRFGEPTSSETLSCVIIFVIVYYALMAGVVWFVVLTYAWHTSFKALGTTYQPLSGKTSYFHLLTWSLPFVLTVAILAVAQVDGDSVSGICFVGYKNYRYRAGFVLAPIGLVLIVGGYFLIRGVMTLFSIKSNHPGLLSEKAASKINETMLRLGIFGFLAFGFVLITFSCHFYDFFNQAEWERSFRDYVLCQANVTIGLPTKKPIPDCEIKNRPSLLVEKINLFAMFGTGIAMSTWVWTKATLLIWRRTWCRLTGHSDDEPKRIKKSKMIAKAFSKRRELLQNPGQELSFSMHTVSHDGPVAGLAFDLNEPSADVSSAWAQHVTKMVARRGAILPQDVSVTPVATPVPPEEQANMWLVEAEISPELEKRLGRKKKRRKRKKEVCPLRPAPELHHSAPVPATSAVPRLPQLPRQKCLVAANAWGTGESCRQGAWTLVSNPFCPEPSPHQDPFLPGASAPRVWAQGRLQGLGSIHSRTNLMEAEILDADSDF
As to the kind of experiment: BODIPY-Cyclopamine competition binding assay, flow cytometry, HEK293T cells transiently transfected with mSMO. The conditions noted are these: BODIPY-Cyclopamine 5 nM. The procedure: Prior to transfection, cell culture media was replaced with DMEM + 10%FBS for mSMO transfection and with DMEM + 10%BCS for ShhN transfection. The transfected dish was incubated for approximately 24 hours at 37°C. For the production of ShhN conditioned medium, the culture medium from ShhN-transfected HEK293T cells was collected, aliquoted in single use 1.5 mL Eppendorf tubes and either used fresh or stored at -20°C.
HEK293T cells transiently transfected with mSMO were lifted with trypsin (0.25%) and replated at 6×10^4 cells in 80 μL DMEM + 10%FBS per well in a 96 well tissue-culture treated plate (Falcon, 353219). The plate was incubated at 37°C for 24 hours. Serial dilutions of test compounds (10x final concentrations) were prepared in culture media. 10 μL of diluted compounds or control media were added to the plate after which the plate was incubated at 37°C for 10 min. […] Following at least 1.5 hours incubation at 37°C in 5% CO2, cells were lifted by vigorous pipetting, transferred to conical bottom 96-well plates, and centrifuged at 400 × g for 5 min at 4°C. Supernatant was discarded, cells were re-suspended in 300 μL of PBS + 0.5% BSA (freshly prepared), and the plate was analyzed with Guava benchtop flow cytometer. The results were interpreted with FlowJo software (version v10.1). Dose response curves were constructed in Prism 6 (GraphPad Software, La Jolla, CA).
For orientation: A flow cytometer gives signals particle by particle.

Assay [5] addresses T1, SMO. As to the kind of experiment: Competitive functional inhibition assay against SAG, Gli-Luciferase, NIH 3T3 Gli-RE cells. The class given is cell-based. The conditions noted are these: read-out: EC50 of SAG (printed as IC50 in Fig 5c); SAG alone. The procedure: After 24 hours, when the cells reached confluency, the culture medium was replaced with 80 μL per well of assay medium [Optimem ± 10 mM HEPES ± 1 mM Sodium Pyruvate + 1× MEM NEAA]. […] Following incubation of the plate for at least 28 hours at 37°C, the cells were simultaneously lysed and supplemented with a luciferase substrate by addition of equal volume of Steady-Glo reagent (Promega, E2520) directly to the assay media. Plates were mixed by pipetting, centrifuged to eliminate foam, incubated for 10 minutes, and analyzed using Perkin Elmer Viktor X luminescence plate reader. The results were analyzed using a non-linear regression (Prism 6, GraphPad Software, La Jolla, CA). Data were normalized to the maximal response observed for ShhN-stimulated cells in the same experiment. A sigmoidal-dose response curve was used as a model for data analysis and IC50 value calculation.

In assay [6] the test system is firefly luciferase under control of cAMP response element (CRE). In words: CRE-luciferase counter assay in HEK293s cells. Format: cell-based. As to conditions: different concentrations. On the procedure:
(a) The drugs were tested at different concentrations in HEK293s cells stably transfected with firefly luciferase under control of cAMP response element (CRE) (pGL4.29[luc2P/CRE/Hygro], Promega). […] Raw, non-normalized luminescence values are presented, to facilitate the assessment of the extent of inhibition. Shown is a single representative experiment out of the multiple experiments performed on different days. (Mean ± SD)

For assay [7], the system named is nuclear Gli-1 in DAOY cells. In words: Western blot quantitation of nuclear Gli-1. The class given is cell-based, human. The conditions noted are these: NS conditions, 24-hour treatment, 5 μM (Fig 6f, S4 Fig). On the procedure:
(§1) Nuclear fractions were prepared from cell pellets according to the method of Schreiber et. al.[81] with minor modifications. […] After 24 hours, cells were lifted from the wells by pipetting, transferred to 1.5 mL Eppendorf tubes, centrifuged at 10,000 x g for 1 minutes at 4°C, and washed once in PBS. Following supernatant removal by vacuum, cells were lysed using a plasma membrane lysis buffer [10 mM HEPES; pH 7.5, 10 mM KCl, 0.1 mM EDTA, 1 mM dithiothreitol (DTT), 0.5% Nonidet P‐40 and 0.5 mM PMSF along with 1× protease inhibitor cocktail (Sigma)] and allowed to swell on ice for 15‐20 min with intermittent mixing. Next, tubes were vortexed to disrupt cell membranes and then centrifuged at 12,000 × g at 4°C for 10 min. […] The pelleted nuclei were washed with the plasma membrane lysis buffer and re-suspended in the nuclear extraction buffer [20 mM HEPES (pH 7.5), 400 mM NaCl, 1 mM EDTA, 1 mM DTT, 1 mM PMSF with 1× protease inhibitor cocktail] and incubated on ice for 30 min. The tubes were centrifuged at 12,000 ×g for 25 min at 4°C and the supernatant (now containing the soluble fraction of the cell nuclei) was collected. Total protein concentrations were determined using the Bio-Rad Protein Assay (Bio-Rad, Hercules, CA). Nuclear extracts containing the total of 40 μg protein were separated on a 10% Tris-SDS PAGE gel (Bio-Rad Mini-PROTEAN® TGX). Gels were transferred on nitrocellulose membranes using Bio-Rad TransBlot system, after which the membranes were blocked in the blocking buffer [5% nonfat dry milk in 1× Tris Buffer Saline + 0.1% Tween 20 (TBST)] for 2 hours at room temperature. Following blocking, the membranes were washed four times with TBST (5 minutes gentle rocking per wash) and incubated overnight with primary antibody Rabbit anti-Gli-1 (Cell signaling, #C68H3); 1:250 dilution in TBST-Milk at 4°C with gentle rocking. Membranes were washed three times with TBST for 5 min each.
A general note: A western blot detects proteins with antibodies after separation by electrophoresis.

The test system of assay [8] is nuclear Gli-1 in MB-PDX cells. In words: Western blot quantitation of nuclear Gli-1. The class given is cell-based, human. As to conditions: NS conditions, 24-hour treatment, 5 μM (Fig 6f, S4 Fig). On the procedure:
as §1

The subject of assay [9] is MB-PDX cells. As to the kind of experiment: cells. As to conditions: Homo sapiens, 72 h, read-out: Cell viability assay IC50.
The mark [10] stands for this setting: Mus musculus, NIH3T3, NIH3T3 Gli-RE cells, ShhN-conditioned media, n = 3, read-out: Hh/SMO pathway inhibition IC50.
The mark [11] stands for this setting: NIH3T3 Gli-RE cells, ShhN-conditioned media, n = 3, read-out: Hh/SMO pathway inhibition IC50.

pEC50, pIC50: −log10 of the molar value. Like-named read-outs stand apart in the source and are kept apart here.

T1 sequence (P56726 33-793): as above

As for `Cc1csc(CN[C@@H]2Cc3ccc(NC(=O)c4cccc(C)c4-c4ccc(C(F)(F)F)cc4)cc3C2)n1` [23b_ NV, 3-methyl-N-[(2R)-2-[(4-methyl-1,3-thiazol-2-yl)methylamino]-2,3-dihydro-1H-inden-5-yl]-2-[4-(trifluoromethyl)phenyl]benzamide], the pIC50 on SMO [1] is 7.77.
In the case of `CNCc1ccc(C)c(NC(=O)c2ccc(Nc3nc(-c4ccccc4)c4ccccc4n3)cc2)c1` [BMS_833923], the pIC50 on SMO [1] is 7.46 to 8.22.
As for `CC1=C2C[C@H]3[C@@H](CC=C4C[C@@H](O)CC[C@@]43C)[C@@H]2CC[C@]12O[C@@H]1C[C@H](C)CN[C@H]1[C@H]2C` [Cyclopamine], the pIC50 is 6.72 in the assay with Hh/SMO pathway (Mus musculus, NIH3T3, read-out: Hh/SMO pathway inhibition IC50, NIH3T3 Gli-RE cells, ShhN-conditioned media, n = 3) and 6.72 in the assay with Hh/SMO pathway (read-out: Hh/SMO pathway inhibition IC50, NIH3T3 Gli-RE cells, ShhN-conditioned media, n = 3). Besides, the “Span of concentration response curve” value in the assay on Hh/SMO pathway came to 105.7.
On to `C#Cc1cccc(Nc2ncnc3cc(OCCOC)c(OCCOC)cc23)c1` [Erlotinib], for which, in the assay on DAOY cells [2], the pIC50 is 4.96. The “Inhibition of NS formation, wells” value with DAOY cells [3] and with MB-PDX cells [4] was “ineffective” each time. The “Effect on cell viability (in words)” value in the assay on MB-PDX and DAOY cells is “did not affect cell viability under any condition”.
With `CCC(C)n1ncn(-c2ccc(N3CCN(c4ccc(OCC5COC(Cn6cncn6)(c6ccc(Cl)cc6Cl)O5)cc4)CC3)cc2)c1=O` (stereo not drawn) [Itraconazole], on SMO [1], the pIC50 was 6.10.
Turning to `C[C@@]12CN(C(=O)Nc3ccnn3-c3ccccc3)CCN1C(=O)N([C@H]1C[C@@H]1c1ccccc1)C2=O` [MK_5710, (8aS)-8a-methyl-1,3-dioxo-2-[(1S,2R)-2-phenylcyclopropyl]-N-(1-phenyl-1H-pyrazol-5-yl)hexahydroimid azo[1,5-a]pyrazine-7(1H)-carboxamide], on SMO [1], the pIC50 is 7.77.
With `COC(=O)Nc1nc2ccc(C(=O)c3ccccc3)cc2[nH]1` [Mebendazole], the figures for the pIC50 in the assay on Hh/SMO pathway (setting [10]) and with Hh/SMO pathway (setting [11]) were 6.49 and 6.48, respectively. In the assay on Hh/SMO pathway, the “Inhibition of ShhN-induced Hh signaling (in words)” value (“Inhibition … (in words)” below) was “inhibited ShhN-induced Hh signaling in a dose-dependent manner”. Also, the “Span of concentration response curve” value with Hh/SMO pathway is given as 108.1. Moreover, the “Displacement of BODIPY-Cyclopamine from SMO (in words)” value (“Displacement of BODIPY-Cyclopamine” for short) on mSMO is “no effect”.
Consider `CS(=O)(=O)Nc1ccc([N+](=O)[O-])cc1Oc1ccccc1` [Nimesulide], for which, in the assay on Hh/SMO pathway, the “Inhibition … (in words)” value is “inactive” and the “Span of concentration response curve” value was -3.874. Besides, the “Displacement of BODIPY-Cyclopamine” value at mSMO was “no effect”.
A word on the pEC50: it is the negative decadic logarithm of the EC50, by convention in mol/L. For `CNC1CCC(N(Cc2cccc(-c3ccncc3)c2)C(=O)c2sc3ccccc3c2Cl)CC1` (stereo not drawn) [SAG], the pEC50 at SMO [1] (read-out: Gli-RE-luciferase assay EC50 (for SAG the value is EC50 not IC50), agonist) was 8.52; on SMO [5], 7.10.
As to `Cc1nn(-c2ccccc2)c(C)c1/C=N/N1CCN(Cc2ccccc2)CC1` [SANT-1], the pIC50 on SMO [1] is 7.70.
On to `CC1=C2C[C@H]3[C@@H](CC[C@@H]4C[C@H](NS(C)(=O)=O)CC[C@@]43C)[C@@H]2CC[C@@]2(C1)O[C@@H]1C[C@H](C)CN[C@H]1[C@H]2C` [Saridegib], for which the pIC50 on SMO [1] is 8.05.
As for `Cc1c(C(=O)Nc2ccc(N3C[C@@H](C)O[C@@H](C)C3)nc2)cccc1-c1ccc(OC(F)(F)F)cc1` [Sonidegib (NVP-LDE225), Sonidegib], on SMO [1], the pIC50 is 8.60.
With `CN(C(=O)c1ccc(F)cc1C(F)(F)F)C1CCN(c2nnc(-c3ccnn3C)c3ccccc23)CC1` [Taladegib (LY2940680), Taladegib], the pIC50 at SMO [1] was 8.59.
For `O=C1CCC(N2C(=O)c3ccccc3C2=O)C(=O)N1` (stereo not drawn) [Thalidomide], in the assay on Hh/SMO pathway, the “Inhibition … (in words)” value was “inactive” and the “Span of concentration response curve” value is -12.85. For the same compound, at mSMO, the “Displacement of BODIPY-Cyclopamine” value is recorded as “no effect”.
On to `CS(=O)(=O)c1ccc(C(=O)Nc2ccc(Cl)c(-c3ccccn3)c2)c(Cl)c1` [Vismodegib], for which the pIC50 with Hh/SMO pathway (setting [10]) is 8.39; in the assay on Hh/SMO pathway (setting [11]), 8.40; in the assay with MB-PDX cells [9], 4.28. For the same compound, in assay [6], the “Effect on CRE-driven luciferase activity (independent of SMO)” value is reported as “lack of dose-dependent effect”. Further, the “Inhibition of NS formation, wells” value in the assay with DAOY cells [3] and in the assay with MB-PDX cells [4] was “ineffective” in each case. Besides, the results for the “Nuclear Gli-1, mean, % of untreated samples” value in assay [7] and in assay [8] were 75% and 67%, respectively.
